Inhibition and IC50 data for 36 molecules are collected here from patent publication US12479843B2, “Spiro ring-containing quinazoline compounds” (WIGEN BIOMEDICINE TECHNOLOGY (SHANGHAI) CO., LTD., priority 2019, dated 2025).

For one test, the system named is pERK level in H358 cells. Description: pERK and ERK protein content assay in H358 cells (ELISA). Particulars: Homo sapiens, NCI-H358, compound 1 μM, 24 h, pERK/ERK ratio compared with DMSO group, read-out: Inhibition rate (%) of pERK level. The class given is cell-based. In outline:
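H358 cells grown one day, then treated 24 h with compound at 1 μM. pERK and ERK in lysates measured by ELISA; pERK/ERK ratio expressed as percent inhibition versus DMSO.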

The next test relates to H358 cells. Description: Antiproliferative activity against H358 cells (Cell Titer Glow, ultra-low attachment plate). The following applies: Homo sapiens, NCI-H358, 72 h, 96-well ultra-low attachment plate, three days after addition of compound, Cell Titer Glow. The class given is cell-based. On the procedure: 2500 H358 cells were seeded in a 96-well ultra-low attachment plate (corning, 7007). After one day of growth, a serially diluted compound (a maximum concentration of 5 μM, 5-fold dilution, a total of five doses) was added. Three days after the addition of the compound, Cell Titer Glow (Promega, G9681) was added to evaluate pellet growth, and the IC50 value was calculated.
In general terms: Cellular ATP, detected with luciferase, serves as a proxy for viable cell number.

For the molecule `C=CC(=O)N1CC2(CCN(c3nc(N4CC(N5CC[C@@H](C)C5)C4)nc4c(OCC(F)(F)F)c(-c5c(C)ccc6[nH]ncc56)c(C5CC5)cc34)CC2)C1` [Compound 248], the inhibition (commonly the change of the read-out against control, counted positive when it falls) at 1 µM in the test with pERK level in H358 cells is above 90%. Also, the IC50 (in general, the concentration needed to halve the response being measured) in the test with H358 cells is below 300 nM.
For `C=CC(=O)N1CC2(CCN(c3nc(N4CC(N5CCC[C@@H]5C#N)C4)nc4c(OCC(F)(F)F)c(-c5c(C)ccc6[nH]ncc56)c(C5CC5)cc34)CC2)C1` [Compound 249], in that order: 50 to 90% and 300 to 1000 nM.
Turning to `C=CC(=O)N1CC2(CCN(c3nc(N4CC(N5CCC[C@H]5C#N)C4)nc4c(OCC(F)(F)F)c(-c5c(C)ccc6[nH]ncc56)c(C5CC5)cc34)CC2)C1` [Compound 250], the inhibition at 1 µM in the test with pERK level in H358 cells lay within 50 to 90%. The molecule also had an IC50 in the test with H358 cells of 300 to 1000 nM.
Take `C=CC(=O)N1CC2(CCN(c3nc(N4CC(N5CCC[C@@H]5CO)C4)nc4c(OCC(F)(F)F)c(-c5c(C)ccc6[nH]ncc56)c(C5CC5)cc34)CC2)C1` [Compound 251]: the inhibition at 1 µM in the test on pERK level in H358 cells is above 90%. In the test on H358 cells, this molecule returned an IC50 below 300 nM.
For `C=CC(=O)N1CC2(CCN(c3nc(N4CC(N5CCC[C@H]5CO)C4)nc4c(OCC(F)(F)F)c(-c5c(C)ccc6[nH]ncc56)c(C5CC5)cc34)CC2)C1` [Compound 252], in that order: above 90% and below 300 nM.
The corresponding values for `C=CC(=O)N1CC2(CCN(c3nc(N4CC(N5CC[C@H](C(C)(C)O)C5)C4)nc4c(OCC(F)(F)F)c(-c5c(C)ccc6[nH]ncc56)c(C5CC5)cc34)CC2)C1` [Compound 253] are above 90% and 300 to 1000 nM.
For `C=CC(=O)N1CC2(CCN(c3nc(N4CC(N5CC[C@@H](C(C)(C)O)C5)C4)nc4c(OCC(F)(F)F)c(-c5c(C)ccc6[nH]ncc56)c(C5CC5)cc34)CC2)C1` [Compound 254], in that order: above 90% and 300 to 1000 nM.
In the case of `C=CC(=O)N1CC2(CCN(c3nc(N4CC(N5CC[C@H](N(C)C)C5)C4)nc4c(OCC(F)(F)F)c(-c5c(C)ccc6[nH]ncc56)c(C5CC5)cc34)CC2)C1` [Compound 255], in the test on pERK level in H358 cells, the inhibition at 1 µM is above 90%. The molecule also gave an IC50 with H358 cells below 300 nM.
The corresponding values for `C=CC(=O)N1CC2(CCN(c3nc(N4CC(N5CC[C@@H](N(C)C)C5)C4)nc4c(OCC(F)(F)F)c(-c5c(C)ccc6[nH]ncc56)c(C5CC5)cc34)CC2)C1` [Compound 256] are above 90% and below 300 nM.
As for `C=CC(=O)N1CC2(CCN(c3nc(N4CC(N5CC[C@H](C#N)C5)C4)nc4c(OCC(F)(F)F)c(-c5c(C)ccc6[nH]ncc56)c(C5CC5)cc34)CC2)C1` [Compound 257], the inhibition at 1 µM in the test with pERK level in H358 cells was above 90%. The IC50 in the test with H358 cells fell in the range of 300 to 1000 nM.
The corresponding values for `C=CC(=O)N1CC2(CCN(c3nc(N4CC(N5CC[C@@H](C#N)C5)C4)nc4c(OCC(F)(F)F)c(-c5c(C)ccc6[nH]ncc56)c(C5CC5)cc34)CC2)C1` [Compound 258] are above 90% and 300 to 1000 nM.
With `C=CC(=O)N1CC2(CCN(c3nc(N4CC(N5C[C@@H](O)C[C@H]5C)C4)nc4c(OCC(F)(F)F)c(-c5c(C)ccc6[nH]ncc56)c(C5CC5)cc34)CC2)C1` [Compound 259], the inhibition at 1 µM in the test with pERK level in H358 cells was above 90%. This molecule came in with an IC50 in the test with H358 cells below 300 nM.
Turning to `C=CC(=O)N1CC2(CCN(c3nc(N4CC(N5C[C@H](O)C[C@H]5C)C4)nc4c(OCC(F)(F)F)c(-c5c(C)ccc6[nH]ncc56)c(C5CC5)cc34)CC2)C1` [Compound 260], in the test on pERK level in H358 cells, the inhibition at 1 µM is above 90%. This molecule also gave an IC50 in the test on H358 cells below 300 nM.
For `C=CC(=O)N1CC2(CCN(c3nc(N4CC(N5C[C@H](O)[C@@H](F)C5)C4)nc4c(OCC(F)(F)F)c(-c5c(C)ccc6[nH]ncc56)c(C5CC5)cc34)CC2)C1` [Compound 261], in that order: above 90% and below 300 nM.
Consider `C=CC(=O)N1CC2(CCN(c3nc(N4CC(N5C[C@@H](O)[C@@H](F)C5)C4)nc4c(OCC(F)(F)F)c(-c5c(C)ccc6[nH]ncc56)c(C5CC5)cc34)CC2)C1` [Compound 262], for which, in the test with pERK level in H358 cells, the inhibition at 1 µM is above 90%. This molecule displayed an IC50 in the test with H358 cells below 300 nM.
Take `C=CC(=O)N1CC2(CCN(c3nc(N4CC(N5C[C@H](OC)[C@@H](F)C5)C4)nc4c(OCC(F)(F)F)c(-c5c(C)ccc6[nH]ncc56)c(C5CC5)cc34)CC2)C1` [Compound 263]: the inhibition at 1 µM with pERK level in H358 cells is above 90%. In the test on H358 cells, this molecule had an IC50 below 300 nM.
Turning to `C=CC(=O)N1CC2(CCN(c3nc(N4CC(N5C[C@H](F)[C@H](OC)C5)C4)nc4c(OCC(F)(F)F)c(-c5c(C)ccc6[nH]ncc56)c(C5CC5)cc34)CC2)C1` [Compound 264], in the test with pERK level in H358 cells, the inhibition at 1 µM was above 90%. In the test on H358 cells, this molecule showed an IC50 below 300 nM.
For `C=CC(=O)N1CC2(CCN(c3nc(N4CC(N5C[C@@H](C)[C@@H](O)C5)C4)nc4c(OCC(F)(F)F)c(-c5c(C)ccc6[nH]ncc56)c(C5CC5)cc34)CC2)C1` [Compound 265], in that order: above 90% and below 300 nM.
Regarding `C=CC(=O)N1CC2(CCN(c3nc(N4CC(N5C[C@@H](C)[C@@H](OC)C5)C4)nc4c(OCC(F)(F)F)c(-c5c(C)ccc6[nH]ncc56)c(C5CC5)cc34)CC2)C1` [Compound 266], the inhibition at 1 µM in the test on pERK level in H358 cells was above 90%. In the test with H358 cells, this molecule came in with an IC50 below 300 nM.
The corresponding values for `C=CC(=O)N1CC2(CCN(c3nc(N4CC(N5C[C@@H](F)[C@@H](F)C5)C4)nc4c(OCC(F)(F)F)c(-c5c(C)ccc6[nH]ncc56)c(C5CC5)cc34)CC2)C1` [Compound 267] are above 90% and below 300 nM.
In the case of `C=CC(=O)N1CC2(CCN(c3nc(N4CC(N5CCC(C)CC5)C4)nc4c(OCC(F)(F)F)c(-c5c(C)ccc6[nH]ncc56)c(C5CC5)cc34)CC2)C1` [Compound 268], in the test on pERK level in H358 cells, the inhibition at 1 µM was above 90%. For the same molecule, the IC50 in the test on H358 cells is below 300 nM.
Consider `C=CC(=O)N1CC2(CCN(c3nc(N4CC(N5CCC(C)(C)CC5)C4)nc4c(OCC(F)(F)F)c(-c5c(C)ccc6[nH]ncc56)c(C5CC5)cc34)CC2)C1` [Compound 269], for which the inhibition at 1 µM in the test with pERK level in H358 cells was above 90%. In addition, the IC50 in the test on H358 cells was below 300 nM.
As for `C=CC(=O)N1CC2(CCN(c3nc(N4CC(N5C6CCC5CC6)C4)nc4c(OCC(F)(F)F)c(-c5c(C)ccc6[nH]ncc56)c(C5CC5)cc34)CC2)C1` [Compound 270], the inhibition at 1 µM with pERK level in H358 cells is above 90%. For the same molecule, in the test with H358 cells, the IC50 was below 300 nM.
For `C=CC(=O)N1CC2(CCN(c3nc(N4CC5(C4)[C@@H](O)CCN5C)nc4c(OCC(F)(F)F)c(-c5c(C)ccc6[nH]ncc56)c(C5CC5)cc34)CC2)C1` [Compound 271], in that order: above 90% and below 300 nM.
As to `C=CC(=O)N1CC2(CCN(c3nc(N4CC5(C4)[C@H](O)CCN5C)nc4c(OCC(F)(F)F)c(-c5c(C)ccc6[nH]ncc56)c(C5CC5)cc34)CC2)C1` [Compound 272], the inhibition at 1 µM in the test with pERK level in H358 cells was above 90%. In the test on H358 cells, this molecule came in with an IC50 below 300 nM.
For `C=CC(=O)N1CC2(CCN(c3nc(N4CC5(C4)[C@@H](F)CCN5C)nc4c(OCC(F)(F)F)c(-c5c(C)ccc6[nH]ncc56)c(C5CC5)cc34)CC2)C1` [Compound 273], in that order: above 90% and below 300 nM.
As for `C=CC(=O)N1CC2(CCN(c3nc(N4CC5(C4)[C@H](F)CCN5C)nc4c(OCC(F)(F)F)c(-c5c(C)ccc6[nH]ncc56)c(C5CC5)cc34)CC2)C1` [Compound 274], the inhibition at 1 µM with pERK level in H358 cells was above 90%. The IC50 in the test on H358 cells is below 300 nM.
On to `C=CC(=O)N1CC2(CCN(c3nc(N4CC5(C4)[C@@H](OC)CCN5C)nc4c(OCC(F)(F)F)c(-c5c(C)ccc6[nH]ncc56)c(C5CC5)cc34)CC2)C1` [Compound 275], for which, in the test on pERK level in H358 cells, the inhibition at 1 µM was above 90%. In addition, the IC50 with H358 cells is below 300 nM.
The corresponding values for `C=CC(=O)N1CC2(CCN(c3nc(N4CC5(C4)[C@H](OC)CCN5C)nc4c(OCC(F)(F)F)c(-c5c(C)ccc6[nH]ncc56)c(C5CC5)cc34)CC2)C1` [Compound 276] are above 90% and below 300 nM.
Consider `C=CC(=O)N1CC2(CCN(c3nc(N4CC5(C4)[C@@H](N(C)C)CCN5C)nc4c(OCC(F)(F)F)c(-c5c(C)ccc6[nH]ncc56)c(C5CC5)cc34)CC2)C1` [Compound 277], for which the inhibition at 1 µM in the test with pERK level in H358 cells is above 90%. Besides, the IC50 in the test on H358 cells was below 300 nM.
For `C=CC(=O)N1CC2(CCN(c3nc(N4CC5(C4)[C@H](N(C)C)CCN5C)nc4c(OCC(F)(F)F)c(-c5c(C)ccc6[nH]ncc56)c(C5CC5)cc34)CC2)C1` [Compound 278], in that order: above 90% and below 300 nM.
With `C=CC(=O)N1CC2(CCN(c3nc(N4CC5(CCCO5)C4)nc4c(OCC(F)(F)F)c(-c5c(C)ccc6[nH]ncc56)c(C5CC5)cc34)CC2)C1` [Compound 279], in the test with pERK level in H358 cells, the inhibition at 1 µM was above 90%. In addition, in the test on H358 cells, the IC50 is below 300 nM.
The corresponding values for `C=CC(=O)N1CC2(CCN(c3nc(N4CC5(C4)OCC[C@@H]5N(C)C)nc4c(OCC(F)(F)F)c(-c5c(C)ccc6[nH]ncc56)c(C5CC5)cc34)CC2)C1` [Compound 280] are above 90% and below 300 nM.
For `C=CC(=O)N1CC2(CCN(c3nc(N4CC5(C4)OCC[C@H]5N(C)C)nc4c(OCC(F)(F)F)c(-c5c(C)ccc6[nH]ncc56)c(C5CC5)cc34)CC2)C1` [Compound 281], in that order: above 90% and below 300 nM.
For `C=CC(=O)N1CC2(CCN(c3nc(N4CC5(CC(O)C5)C4)nc4c(OCC(F)(F)F)c(-c5c(C)ccc6[nH]ncc56)c(C5CC5)cc34)CC2)C1` [Compound 282], in that order: above 90% and below 300 nM.
Consider `C=CC(=O)N1CC2(CCN(c3nc(N4CC5(CC(OC)C5)C4)nc4c(OCC(F)(F)F)c(-c5c(C)ccc6[nH]ncc56)c(C5CC5)cc34)CC2)C1` [Compound 283], for which the inhibition at 1 µM in the test with pERK level in H358 cells lay within 50 to 90%. Moreover, the IC50 with H358 cells was 300 to 1000 nM.
